This test concerns liver bile acids. As to the kind of experiment: Liver bile acid analysis (targeted LC-MS) in WD mice. It counts as in vivo, mice (male B6 129SF1/J). From the text: Animal experiments. Male B6 129SF1/J mice at 6 weeks of age were obtained from Jackson Laboratories (Bar Harbor, ME). Mice were acclimatized to the animal facility for one week. At the start of the experiment, mice were randomly divided into four groups (n=10 for each group). Three of the four groups were fed ad libitum a Western diet (WD) with 40% Kcal from fat and containing 0.15% cholesterol (D12079B, Research Diets) and a sugar water (SW) solution (23.1 g/L d-fructose+18.9 g/L d-glucose) as previously described (DIAMOND model (15)). After 8 weeks, the three groups of WD-fed mice were randomly selected for treatment with vehicle (WD group) or low (WD-50 group) or high dose (WD-100 group) of […]. The WD group was fed WD and drank sugar water. The WD-50 and WD-100 groups were fed WD and drank sugar water containing, respectively, 50 or 100 mg […] per kg body weight. The treatments were continued for another 8 weeks. Water bottles containing SW and […] or only SW were changed every other day. A fourth group of mice was fed a low-fat control diet (D12450B, Research Diets) and normal water for 16 weeks (CN group) (FIG. 9A). FIG. 9A presents the study design. […] The supernatant was transferred into a new sample tube and analyzed by LC-MS. […] The calculated bile acid concentrations were normalized to the level of spiked internal standard for each sample.

For `O=C([O-])Cc1c[nH]c2ccccc12.[Na+]` [I3A, Indole-3-acetate sodium salt], under “WD-50 group vs WD”, the “liver bile acid profile” value is reported as “did not show any significant changes in liver bile acid profile”. Moreover, for the setting “WD-100 group vs WD (WD: reduced total, increased primary bile acids)”, the “liver total bile acids and primary bile acids” value is “showed the opposite trend”.

These data come from patent publication US20240189279A1, “IMMUNOMODULATORY COMPOSITIONS AND METHODS OF USE THEREOF” (THE TEXAS A&M UNIVERSITY SYSTEM, priority 2022, published 2024).
